Measurements taken from article PMC11579541, “In vitro, in vivo, and in silico approaches for evaluating the preclinical DMPK profiles of ammoxetine, a novel chiral serotonin and norepinephrine reuptake inhibitor” (Frontiers in Pharmacology, 2024).
Where two headings read alike, the source gives them in different places.

How the values were obtained:
[1] = Configurational stability study (in vivo chiral inversion); design: species or system SD rats; conditions: rat plasma 2 h after 50 mg/kg oral, chiral HPLC
Description: Twelve SD rats were divided into three groups: a blank control group, an S-071031B group (50 mg/kg), and an R-071031B group (50 mg/kg). Prior to administration, the animals underwent a 12-h fasting period while having access to water. At 2 h post-dosing, the rats were anesthetized, and blood samples were collected from the abdominal aorta into heparinized tubes. Plasma samples were obtained by centrifuging the collected blood at 2,000×g for 10 min to remove blood cells. Subsequently, 1 mL of plasma sample was mixed with 100 μL of 0.1% sodium hydroxide solution and 4 mL of ether. After centrifugation at 2,000×g for 10 min, the upper organic phase within each group was combined, transferred to a new tube, and dried under a stream of nitrogen. The resulting residues were reconstituted with 100 μL of methanol for subsequent HPLC analysis.
A chiral chromatographic column was employed to separate the enantiomers, and the RT of X-071031B (racemic 071031B) and S-071031B (ammoxetine) standards were determined for identification. Plasma samples were collected from rats 2 h after oral administration of 50 mg/kg of S-071031B or R-071031B. The presence of a chromatographic peak at the RT corresponding to the opposite enantiomer following the administration of the S-isomer would indicate the conversion of the S-isomer to the R-isomer in rats. […]

PK study in rats = assay type: in vivo, SD rats; conditions: rat, plasma; for CL/F: read-out: CLz/F (converted); for MRT last: read-out: MRT(0-t); for MRT inf: read-out: MRT(0-∞); for Vd/F: read-out: Vz/F; for half-life: read-out: t1/2z (converted)
Description: For the PK studies in rats and dogs, a total of 18 SD rats and 15 male beagle dogs were randomly divided into three groups, with six rats or five dogs per group, respectively. Prior to the experiments, all animals underwent a 12-h fasting period, while having free access to water. The animals were administered single oral doses of ammoxetine in three different dose levels: 8 mg/kg, 20 mg/kg, and 50 mg/kg for rats, and 2 mg/kg, 5 mg/kg, and 12.5 mg/kg for dogs, representing low, medium, and high doses. Serial blood samples were collected from the rats at 0, 2, 5, 15, and 30 min, as well as 1, 2, 4, 6, 8, 12, and 24 h post-dosing. For the dogs, blood samples were collected at 0, 5, 15, 30, and 45 min, as well as 1, 2, 4, 6, 8, 12, and 24 h post-dosing. Approximately 0.3 mL of blood was collected from the rats, while 2 mL of blood was collected from the dogs. The blood samples were collected into heparinized tubes. Following centrifugation, plasma samples were obtained and stored at −30°C until further analysis.
To determine the concentration of ammoxetine, 100 μL of L-phencynonate (IS, 50 ng/mL) and 300 μL of methanol were added to 100 μL of plasma samples from rats or dogs. After thorough vortexing, the mixture was centrifuged at 13,800×g for 10 min. The supernatants were then subjected to analysis using LC-MS-MS methods. PK parameters were calculated using DAS (Drug And Statistics for Windows) version 2.0, developed by the Shanghai University of Traditional Chinese Medicine, Shanghai, China. The F was determined by comparing the plasma area under the concentration-time curve (AUC) values after oral (p.o.) and intravenous (i.v.) administration of ammoxetine. F was calculated using the formula: F=AUCp.o./AUCi.v.×100% . Statistical analyses were performed using OriginPro 8.6 software. Paired sample or student’s t-test, as well as one-way ANOVA, were employed to compare the means of two or three groups, with a significance level set at p < 0.05.

[2] = Tissue distribution study in rats; assay type: in vivo; conditions: 20 mg/kg oral; for Tmax: read-out: time of peak concentration in tissue; for Kp: po, 20 mg/kg, read-out: AUC(0→t),tissue/AUC(0→t),blood
Description: A total of 24 rats were divided equally into four groups, with each group receiving a single oral gavage dose of 20 mg/kg of ammoxetine. Based on the rat PK analysis results for the 20 mg/kg dose, specific time points were selected for sampling, including before, at, and after the peak of ammoxetine plasma concentration (i.e., 0.25, 2, 6, and 24 h, respectively). At each designated time point after drug administration, the rats were euthanized, and approximately 1 mL of blood samples were collected into heparinized tubes. The heart, liver, spleen, lung, kidney, brain, intestine, stomach, testis, fat, and muscle tissues were rapidly removed after washing out the blood with ice-cold saline. The blood samples were then centrifuged at 6,000 r/min for 15 min to obtain plasma. The collected tissue samples were weighed and homogenized in distilled water to create a 10% homogenate. For further analysis, 100 μL of plasma or tissue homogenate samples were mixed with 300 μL of methanol and 100 μL of L-phencynonate (IS, 50 ng/mL). The mixture was vortexed for 1 min and then centrifuged at 13,800×g for 10 min. The resulting supernatants were used for LC-MS-MS analysis. Using the trapezoidal method, the tissue-to-blood AUC ratio ( AUC0→t,tissue/AUC0→t,blood ) was calculated based on the obtained AUC values. This ratio allowed for the comparison of differential tissue distribution of ammoxetine in rats.

chiral inversion in vivo [1]: does not undergo conversion to R-071031B
AUC(0-inf) (PK study in rats; SD, 8 mg/kg single oral dose): 1370 ng·h/mL
AUC(0-t) (PK study in rats; SD, 8 mg/kg single oral dose): 1370 ng·h/mL
Cmax (PK study in rats; SD, 8 mg/kg single oral dose): 287 ± 50.8 ng/mL
CL/F (PK study in rats; SD, 8 mg/kg single oral dose): 100 mL/min/kg
MRT last (PK study in rats; SD, 8 mg/kg single oral dose): 4.38 ± 0.47 h
MRT inf (PK study in rats; SD, 8 mg/kg single oral dose): 4.49 ± 0.44 h
Tmax (PK study in rats; SD, 8 mg/kg single oral dose, read-out: Tmax): 0.75 ± 0.27 h
Vd/F (PK study in rats; SD, 8 mg/kg single oral dose): 24.4 ± 4.48 L/kg
half-life (PK study in rats; SD, 8 mg/kg single oral dose): 2.87 ± 0.59 h
AUC(0-inf) (PK study in rats; SD, 20 mg/kg single oral dose): 3400 ng·h/mL
AUC(0-t) (PK study in rats; SD, 20 mg/kg single oral dose): 3200 ng·h/mL
Cmax (PK study in rats; SD, 20 mg/kg single oral dose): 400 ± 246 ng/mL
CL/F (PK study in rats; SD, 20 mg/kg single oral dose): 108 mL/min/kg
MRT last (PK study in rats; SD, 20 mg/kg single oral dose): 6.73 ± 1.25 h
MRT inf (PK study in rats; SD, 20 mg/kg single oral dose): 8.57 ± 3.58 h
Tmax (PK study in rats; SD, 20 mg/kg single oral dose, read-out: Tmax): 1.58 ± 1.39 h
Vd/F (PK study in rats; SD, 20 mg/kg single oral dose): 53.5 ± 29 L/kg
half-life (PK study in rats; SD, 20 mg/kg single oral dose): 5.61 ± 2.59 h
AUC(0-inf) (PK study in rats; SD, 50 mg/kg single oral dose): 12900 ng·h/mL
AUC(0-t) (PK study in rats; SD, 50 mg/kg single oral dose): 11000 ng·h/mL
Cmax (PK study in rats; SD, 50 mg/kg single oral dose): 987 ± 362 ng/mL
CL/F (PK study in rats; SD, 50 mg/kg single oral dose): 72.3 mL/min/kg
MRT last (PK study in rats; SD, 50 mg/kg single oral dose): 7.74 ± 0.52 h
MRT inf (PK study in rats; SD, 50 mg/kg single oral dose): 11.8 ± 7.34 h
Tmax (PK study in rats; SD, 50 mg/kg single oral dose, read-out: Tmax): 3.83 ± 2.7 h
Vd/F (PK study in rats; SD, 50 mg/kg single oral dose): 40.3 ± 16.4 L/kg
half-life (PK study in rats; SD, 50 mg/kg single oral dose): 7.51 ± 5.7 h
Tmax (PK study in rats; Sprague-Dawley (SD), oral 8, 20 and 50 mg/kg, read-out: Tmax values, range): 0.75 to 3.83 h
Plasma exposure as share of total systemic exposure (AUC0→t,blood/AUC0→t,total) [2]: approximately 0.186%
AUC(0→t) ([2]; brain): 60,541.26 ± 19,438.07 ng/g·h
AUC(0→t) ([2]; fat): 38,592.32 ± 24,498.69 ng/g·h
AUC(0→t) ([2]; heart): 44,743.11 ± 11,086.06 ng/g·h
AUC(0→t) ([2]; intestine): 190,710.5 ± 52,982.23 ng/g·h
AUC(0→t) ([2]; kidney): 98,000.01 ± 25,400.16 ng/g·h
AUC(0→t) ([2]; liver): 208,081.20 ± 64,872.68 ng/g·h
AUC(0→t) ([2]; lung): 393,670.80 ± 31,407.40 ng/g·h
AUC(0→t) ([2]; muscle): 24,154.50 ± 6,583.59 ng/g·h
AUC(0→t) ([2]; spleen): 117,673.30 ± 31,479.36 ng/g·h
AUC(0→t) ([2]; stomach): 118,279.40 ± 37,565.21 ng/g·h
AUC(0→t) ([2]; testis): 69,347.84 ± 13,459.91 ng/g·h
Tmax ([2]; rat, heart, spleen, lung, kidney, brain, fat and muscle): 2 h
Tmax ([2]; rat, testis): 6 h
Kp ([2]; rat, brain, brain): ~23.3
Kp ([2]; rat, fat, fat): 14.2 ± 7.84
Kp ([2]; rat, heart, heart): 17.1 ± 3.3
Kp ([2]; rat, intestine, intestine): 75.6 ± 28.2
Kp ([2]; rat, kidney, kidney): 37.7 ± 8.18
Kp ([2]; rat, liver, liver): 81.4 ± 26.8
Kp ([2]; rat, lung, lung): 155 ± 34.7
Kp ([2]; rat, muscle, muscle): 9.31 ± 2.29
AUC(0-t) ([2]; rat, plasma, blood): 2620 ng·h/mL
Kp ([2]; rat, spleen, spleen): 46 ± 14.2
Kp ([2]; rat, stomach, stomach): 48.8 ± 27.6
Kp ([2]; rat, testis, testis): 27.3 ± 8.12
Compound: CNCC[C@H](Oc1cccc2c1OCO2)c1cccs1 [ammoxetine]
